This note sets out measurements from patent US12378211B2, “Carbonic anhydrase inhibitors and antibiotics against multidrug resistant bacteria” (Purdue Research Foundation, priority 2018, dated 2025).

SMILES strings stand for the structures. Converted amounts (≈) assume the structure as drawn. Read-outs that look alike come from different tables or passages of the source.

The test system of data set [1] is Enterococcus faecalis-S613 HM-334. The experiment in a line: MIC in presence of 4% human serum albumin. The conditions noted are these: TSB supplemented with 4% human serum albumin. Type of data set: cell-based. Here is the method:
The minimum inhibitory concentrations (MICs) of CAIs were tested against vancomycin resistant Enterococcus faecalis—S613 HM 334 strain as per the guidelines provided by the Clinical and Laboratory Standards Institute (CLSI). The selected strain was streaked on Tryptic Soy Agar (TSA) plate and let grow for 24 hours at 37° C. Afterwards, a bacterial solution equivalent to 0.5 McFarland standard was prepared and diluted in tryptone soy broth (TSB) supplemented with 4% human serum albumin (HAS) to achieve a bacterial concentration of about 5×10^5 CFU/mL and seeded in 96-well well plates. Compounds and control drugs were added in the first row of the 96-well plates and serially diluted along the plates. Plates were then incubated aerobically at 37° C. for 18-20 hours. MICs reported in table (6) are the minimum concentration of the compounds/control drugs that could inhibit completely the visual growth of the bacteria.

Data set [2] concerns Bacteroides fragilis—CL07T00C01 HIM-709. The experiment in a line: MIC against human normal gut microbiota. Type of data set: cell-based. The conditions noted are these: BHIS broth, anaerobic, 48 hours. The method, boiled down: (§1)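 Broth microdilution: 0.5 McFarland suspensions in PBS diluted to ~5×10^5 CFU/ml, BHIS broth for Bacteroides/Bifidobacterium, MRS broth for Lactobacillus. Serial compound dilutions, 48 h, 37° C; anaerobic vs 5% CO2 respectively.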

Data set [3] deals with Bacteroides dorei—CL02T12C06 HM-719. As to the kind of experiment: MIC against human normal gut microbiota. The format is cell-based. The following applies: BHIS broth, anaerobic, 48 hours. The method, boiled down: as §1
Data set [4] has as its system Bifidobacterium breve—JCP7499 HIM 1120. The experiment in a line: MIC against human normal gut microbiota. The following applies: BHIS broth, anaerobic, 48 hours. The format is cell-based. The method, boiled down: as §1
Data set [5] has as its system fibroblast-like monkey kidney cell line (VERO cell). The experiment in a line: In vitro cytotoxicity, MTS assay, VERO cells. Type of data set: cell-based. The following applies: at concentration up to 128 μg/mL; tested at 64 and 128 μg/mL; two hours. The procedure: Toxicity assessment: Compounds AS005H, AS005J, AS004B, AS005K, AS005A and 005D were assayed (at concentrations of 64 and 128 μg/mL) against a fibroblast-like monkey kidney cell line (VERO cell) to determine the potential toxic effect in vitro. Briefly, cells were cultured in Minimum Essential Medium (MEM) supplemented with 10% fetal bovine serum (FBS), 1 mM sodium pyruvate, and penicillin-streptomycin at 37° C. with CO2 (5%). Control cells received DMSO alone at a concentration equal to that in drug-treated cell samples. The cells were incubated with the compounds (in triplicate) in a 96-well plate at 37° C. with CO2 (5%) for two hours. The assay reagent MTS 3-(4,5-dimethylthiazol-2-yl)-5-(3-carboxymethoxyphenyl)-2-(4-sulfophenyl)-2H-tetrazolium) (Promega, Madison, WI, USA) was subsequently added and the plate was incubated for four hours. Absorbance readings (at OD490) were taken using a kinetic microplate reader (Molecular Devices, Sunnyvale, CA, USA). The quantity of viable cells after treatment with each compound was expressed as a percentage of the viability of DMSO-treated control cells (average of triplicate wells±standard deviation). The toxicity data was analyzed via a two-way ANOVA, with post hoc Dunnet's multiple comparisons test (P<0.05), utilizing GraphPad Prism 6.0 (GraphPad Software, La Jolla, CA).
(§2) Percent viable mammalian cells (measured as average absorbance ratio (test agent relative to DMSO) for cytotoxicity analysis of compounds AS005H, AS005J, AS004B, AS005K, AS005A and 005D (tested in triplicates) at 64 and 128 μg/mL against VERO cells using the MTS 3-(4,5-dimethylthiazol-2-yl)-5-(3-carboxymethoxyphenyl)-2-(4-sulfophenyl)-2H-tetrazolium) assay. Dimethyl sulfoxide (DMSO) was used as a negative control to determine a baseline measurement for the cytotoxic impact of each compound. The absorbance values represent an average of a minimum of three samples analyzed for each compound. Error bars represent standard deviation values for the absorbance values.
(Tetrazolium dyes change colour on reduction, which living cells bring about.)

For data set [6], the system named is Wild-type E. fecalis (NR 31975). The experiment in a line: MIC against wild-type strain (mutant study). The format is cell-based, Enterococcus fecalis.
The test system of data set [7] is human colorectal adenocarcinoma (Caco-2) cell. The experiment in a line: In vitro cytotoxicity, MTS assay, Caco-2 cells. The conditions noted are these: at concentration up to 128 μg/mL; tested at 64 and 128 μg/mL; two hours. Here is the method: Method: Compounds AS005H, AS005J, AS004B, AS005K, AS005A and 005D were assayed (at concentrations of 64 and 128 μg/mL) against a human colorectal adenocarcinoma (Caco-2) cell to determine the potential toxic effect to mammalian cells in vitro. Briefly, cells were cultured in Dulbecco's Modified Eagle Medium (DMEM) supplemented with 20% fetal bovine serum (FBS), non-essential amino acids (1×), penicillin-streptomycin at 37° C. with CO2 (5%). Control cells received DMSO alone at a concentration equal to that in drug-treated cell samples. The cells were incubated with the compounds (in triplicate) in a 96-well plate at 37° C. with CO2 (5%) for two hours. The assay reagent MTS 3-(4,5-dimethylthiazol-2-yl)-5-(3-carboxymethoxyphenyl)-2-(4-sulfophenyl)-2H-tetrazolium) (Promega, Madison, WI, USA) was subsequently added and the plate was incubated for four hours. Absorbance readings (at OD490) were taken using a kinetic microplate reader (Molecular Devices, Sunnyvale, CA, USA). The quantity of viable cells after treatment with each compound was expressed as a percentage of the viability of DMSO-treated control cells (average of triplicate wells±standard deviation). The toxicity data was analyzed via a two-way ANOVA, with post hoc Dunnet's multiple comparisons test (P<0.05), utilizing GraphPad Prism 6.0 (GraphPad Software, La Jolla, CA).
as §2, with “of” for “of compounds”, “005D compounds” for “005D”, “triplicate)” for “triplicates)”, “Caco-2” for “VERO”, “values. […]” for “values.”

[8] abbreviates: Enterococcus, Table 4, read-out: MIC.

A word on the MIC: it is the smallest concentration in the dilution series that meets the test's criterion for growth inhibition. Regarding `CC(=O)Nc1nnc(S(N)(=O)=O)s1` [Acetazolamide, reference compound], the MIC is more than 256 µg/mL in data set [1] (Enterococcus, read-out: MIC); more than 64 µg/mL in data set [2] (Bacteroides, read-out: MIC); more than 64 µg/mL in data set [3] (Bacteroides, read-out: MIC); more than 64 µg/mL in data set [4] (Bifidobacterium, read-out: MIC).

Consider `CC(C)(C)C(=O)Nc1nnc(S(N)(=O)=O)s1` [CAI0010, N-(5-Sulfamoyl-1,3,4-thiadiazol-2-yl) pivalamide], for which the MIC in data set [1] (Enterococcus, read-out: MIC) was more than 256 µg/mL; in data set [2] (Bacteroides, read-out: MIC), more than 64 µg/mL; in data set [3] (Bacteroides, read-out: MIC), more than 64 µg/mL; in data set [4] (Bifidobacterium, read-out: MIC), more than 64 µg/mL; in data set [6] (setting [8]), 0.5 µg/mL (≈ 1.89 µM). Besides, the “toxicity to VERO cells (percent viable cells relative to DMSO)” value in data set [5] is listed as “non-toxic”. In addition, the “toxicity to Caco-2 cells (percent viable cells relative to DMSO)” value in data set [7] was “non-toxic”.

Turning to `CC(C)C(=O)Nc1nnc(S(N)(=O)=O)s1` [CAI0011, N-(5-Sulfamoyl-1,3,4-thiadiazol-2-yl) isobutyramide], the “toxicity to VERO cells (percent viable cells relative to DMSO)” value in data set [5] is given as “non-toxic”. Moreover, the minimal inhibitory concentration (MIC) in data set [2] (Bacteroides, read-out: MIC) is more than 64 µg/mL; in data set [3] (Bacteroides, read-out: MIC) it was more than 64 µg/mL; in data set [4] (Bifidobacterium, read-out: MIC), more than 64 µg/mL. The “toxicity to Caco-2 cells (percent viable cells relative to DMSO)” value in data set [7] is listed as “non-toxic”.

`NS(=O)(=O)c1nnc(NC(=O)CCC2CCCC2)s1` [CAI0015]: the MIC in data set [1] was more than 256 µg/mL; in data set [2], more than 64 µg/mL; in data set [3], more than 64 µg/mL; in data set [4], more than 64 µg/mL; in data set [6] (Table 4), 0.0625 µg/mL (≈ 0.205 µM). Also, the “toxicity to VERO cells (percent viable cells relative to DMSO)” value in data set [5] is “non-toxic”.

For the compound `CC(C)=CC(=O)Nc1nnc(S(N)(=O)=O)s1` [CAI0016, 3-Methyl-N-(5-sulfamoyl-1,3,4-thiadiazol-2-yl) but-2-enamide], the minimal inhibitory concentration (MIC) in data set [1] was more than 256 µg/mL; in data set [2], more than 64 µg/mL; in data set [3], more than 64 µg/mL; in data set [4] it was more than 64 µg/mL; in data set [6] (Table 4), 1 µg/mL (≈ 3.81 µM). The “toxicity to VERO cells (percent viable cells relative to DMSO)” value in data set [5] is “non-toxic”.

On to `CCc1ccc(C(=O)Nc2nnc(S(N)(=O)=O)s2)cc1` [CAI0017, 4-Ethyl-N-(5-sulfamoyl-1,3,4-thiadiazol-2-yl)benzamide], for which, in data set [5], the “toxicity to VERO cells (percent viable cells relative to DMSO)” value is recorded as “non-toxic”. Also, the MIC is more than 64 µg/mL in data set [2] (Bacteroides, read-out: MIC); more than 64 µg/mL in data set [3] (Bacteroides, read-out: MIC); more than 64 µg/mL in data set [4] (Bifidobacterium, read-out: MIC); 2 µg/mL (≈ 6.4 µM) in data set [6] (setting [8]). For the same compound, the “toxicity to Caco-2 cells (percent viable cells relative to DMSO)” value in data set [7] is “non-toxic”.

Turning to `CC(=O)NC[C@H]1CN(c2ccc(N3CCOCC3)c(F)c2)C(=O)O1` [Linezolid, reference compound], the MIC was 2 µg/mL (≈ 5.93 µM) in data set [2] (Bacteroides, read-out: MIC); 1 µg/mL (≈ 2.96 µM) in data set [3] (Bacteroides, read-out: MIC); not above 0.5 µg/mL in data set [4] (Bifidobacterium, read-out: MIC).
